Where a name gives a salt, the structure may show the parent alone. The source made the active and inactive calls. No cut-off for these calls is given here.
Experiments:
[1] = Selectivity index, ratio of IC50 for african green monkey Vero cells to IC50 for erythrocyte stage Plasmodium falciparum 3D7; format: toxicity, cell-based; details: read-out: Ratio IC50
[2] = Binding affinity to poly(dA.dT) DNA (unknown origin) assessed as change in melting temperature
[3] = Selectivity index, ratio of IC50 for african green monkey Vero cells to IC50 for Trypanosoma brucei brucei blood-stream forms; format: toxicity, cell-based; details: read-out: Ratio IC50
[4] = tested on: Trypanosoma brucei rhodesiense; assay: Antitrypanosomal activity against Trypanosoma brucei rhodesiense STIB900 infected in NMRI mouse assessed as infection cure rate at 1 mg/kg/day for 4 days starting from 3 to 6 days post-infection measured on day 7; format: functional, organism-based
[5] = tested on: Leishmania donovani; assay: Potency index, ratio of IC50 for chloroquine to IC50 for compound against Leishmania donovani; format: functional
[6] = tested on: Vero; assay: Cytotoxicity against african green monkey Vero cells; format: cell-based; details: Chlorocebus sabaeus
[7] = tested on: Trypanosoma brucei rhodesiense; assay: Antitrypanosomal activity against Trypanosoma brucei rhodesiense STIB900 infected in NMRI mouse assessed as infection cure rate at 1 mg/kg/day for 4 days starting from 3 to 6 days post-infection measured on day 10; format: functional, organism-based
[8] = tested on: Leishmania donovani; assay: Antileishmanial activity against Leishmania donovani; format: functional, organism-based
[9] = tested on: Trypanosoma brucei brucei; assay: Antitrypanosomal activity against Trypanosoma brucei brucei blood-stream forms; format: functional, organism-based
[10] = Selectivity index, ratio of IC50 for african green monkey Vero cells to IC50 for Leishmania donovani; format: toxicity, cell-based; details: read-out: Ratio IC50
[11] = tested on: Plasmodium falciparum; assay: Antimalarial activity against erythrocyte stage Plasmodium falciparum 3D7; format: functional, organism-based
[12] = tested on: Trypanosoma brucei rhodesiense; assay: Antitrypanosomal activity against Trypanosoma brucei rhodesiense STIB900 infected in NMRI mouse assessed as infection cure rate at 10 mg/kg/day for 4 days starting from 3 to 6 days post-infection measured on day 10; format: functional, organism-based
[13] = tested on: Trypanosoma brucei rhodesiense; assay: Antitrypanosomal activity against Trypanosoma brucei rhodesiense STIB900 infected in NMRI mouse assessed as infection cure rate at 10 mg/kg/day for 4 days starting from 3 to 6 days post-infection measured on day 7; format: functional, organism-based
[14] = tested on: Mus musculus; assay: Toxicity in BALB/c mouse assessed as induction of overt toxicity at 10 mg/kg/day, ip for 5 days; format: organism-based; parameters: route intraperitoneal; details: in vivo, 120 h
[15] = tested on: Leishmania donovani; assay: Antileishmanial activity against Leishmania donovani LV82 infected in BALB/c mouse model of visceral leishmaniasis assessed as inhibition of liver parasitemia at 10 mg/kg/day, ip for 5 days starting 7 days post-infection; format: functional; details: route intraperitoneal

ΔTm [2] [°C] | IC50 [8] [nM] | IC50 [9] [nM] | IC50 [11] [nM] | Compound | IC50 [6] [nM] | inhibition in vivo at 10 mg/kg/day [15] [%] | further results
 | 7300 | 52000 | 7300 | COc1ccc2c(c1OC)C(C)(C)N1CCc3cc4c(cc3C1C2)OCO4 (stereo unspecified) [8,8-DIMETHYLCANADINE] |  |  | 
0.5 | 100 | 5.3 | 77 | CCC1(CC)c2c(ccc(OC)c2OC)CC2=[N+]1CCc1cc3c(cc12)OCO3.[Cl-] [8,8-Diethyldihydroberberine] | 18000 | 29 | Activity [12]: inactive; selectivity ratio [3]: 3000; Activity [13]: Active; Activity [14]: Non-toxic; selectivity ratio [10]: > 100
0 | 550 | 53 | 30 | CCCC1(CCC)c2c(ccc(OC)c2OC)CC2=[N+]1CCc1cc3c(cc12)OCO3.[Cl-] [8,8-Dipropyldihydroberberine] | 19000 | 32 | selectivity ratio [1]: > 600; Ratio IC50 [5]: 4; Activity [14]: Non-toxic
0.3 | 200 | 4600 | 63 | COc1ccc2c(c1OC)C(C)(C)[N+]1=C(C2)c2cc3c(cc2CC1)OCO3.[Cl-] [8,8-dimethyldihydroberberine] | 8800 | 46 | Activity [14]: Non-toxic
 | 46 |  |  | C[C@@H]1[C@H](O)[C@@H](C)/C=C/C=C/C=C/C=C/C=C/C=C/C=C/[C@H](O[C@@H]2O[C@H](C)[C@@H](O)[C@H](N)[C@@H]2O)C[C@@H]2O[C@](O)(C[C@@H](O)C[C@@H](O)[C@H](O)CC[C@@H](O)C[C@@H](O)CC(=O)O[C@H]1C)C[C@H](O)[C@H]2C(=O)O [AMPHOTERICIN B] |  |  | 
3.5 | 17000 |  |  | COc1ccc2cc3[n+](cc2c1OC)CCc1cc2c(cc1-3)OCO2 [BERBERINE SULFATE] | > 200000 |  | 
 |  | 130 |  | Cc1ccc(C(=O)Nc2ccc(S(=O)(=O)O)c3cc(S(=O)(=O)O)cc(S(=O)(=O)O)c23)cc1NC(=O)c1cccc(NC(=O)Nc2cccc(C(=O)Nc3cc(C(=O)Nc4ccc(S(=O)(=O)O)c5cc(S(=O)(=O)O)cc(S(=O)(=O)O)c45)ccc3C)c2)c1 [SURAMIN] |  |  | 

The remaining lines, values behind:

Compound | ΔTm [2] [°C] | IC50 [8] [nM] | IC50 [9] [nM] | IC50 [11] [nM] | IC50 [6] [nM] | inhibition in vivo at 10 mg/kg/day [15] [%] | further results
CCC1(CC)c2c(ccc(OC)c2OC)C(=O)c2c3cc4c(cc3cc[n+]21)OCO4.[Cl-] | 0.5 | 290 | 2 | 20 | 39000 |  | selectivity ratio [1]: > 600; selectivity ratio [3]: 3000; Activity [4]: Active; Ratio IC50 [5]: 4; Activity [7]: inactive; selectivity ratio [10]: > 100
CCC1(CC)c2c(ccc(OC)c2OC)CC2c3cc4c(cc3CCN21)OCO4 (stereo unspecified) [8,8-DIETHYLCANADINE] |  | 8900 | 230 | 1700 |  |  | 
CCCCCCCCCCCCCCCCOP(=O)([O-])OCC[N+](C)(C)C [MILTEFOSINE] |  |  |  |  |  | 97 | 
COc1cc([C@@H]2c3cc4c(cc3[C@H](O)[C@H]3COC(=O)[C@H]23)OCO4)cc(OC)c1OC [PODOFILOX] |  |  |  |  | 17 |  | 
